In publication PMC8741514, “Post-translational modifications within tau paired helical filament nucleating motifs perturb microtubule interactions and oligomer formation” (The Journal of Biological Chemistry, 2021):
Entries after “also recorded” stand apart in the source; their conditions may differ.

System: T2R complex
Assay: STD NMR titration, tau peptide binding to T2R
Parameters: species or system porcine (tubulin isolated from porcine brain)
Settings: T2R 10 μM; for STD signal / binding to T2R: 1H STD NMR, peptide 2.8 mM, 600 MHz, saturation time 2 s, GPEM buffer pH 6.9; for STD signal / binding to T2R / apparent Kd / affinity for T2R (in words): 10 °C; for apparent Kd / affinity for T2R (in words): STD amplification factor fit, large errors, qualitative
Experimental: Tubulin protein isolated from porcine brain (97 or >99% pure) was purchased from Cytoskeleton, Inc, as a lyophilized powder. Stathmin-like RB3 domain (RB3SLD) binds to heterodimeric tubulin with a 1:2 stoichiometry, forming a longitudinal dimer of tubulin dimers. For ^1H,^15N HSQC NMR experiments, lyophilized tubulin was dissolved into a solution of 48 μM ^15N-labeled K18 (unmodified, modified, or mutant) containing 53 μM RB3 for a final T2R concentration of 50 μM in a buffer containing 25 mM Tris-d11, 25 mM NaCl, 2.5 mM EDTA, 1.5 mM DTT, and 10% heavy water (deuterium oxide [D2O]) at pH 6.7. For ^1H STD NMR experiments, 10 μM T2R was used for samples containing 0.044 to 2.8 mM peptide. Peptide was directly dissolved into buffer or water and added to 10 μM T2R in a buffer containing 25 mM Tris-d11, 25 mM NaCl, 2.5 mM EDTA, 1.5 mM DTT, and 10% D2O at pH 6.7.
STD spectra were recorded at 10 °C on a 600 MHz spectrometer equipped with a cryoprobe by using a series of 40 equally spaced 50 ms Gaussian-shaped pulses, 4096 scans, a saturation time of 2 s, and on/off-resonance frequencies set to −0.5 and 60 ppm, respectively. Samples for ^1H STD NMR were dissolved into GPEM buffer (80 mM PIPES, 2 mM MgCl2, and 0.5 mM EGTA, at pH 6.9). Spectra were processed and analyzed using Topspin 3.1 (Bruker). We quantify the binding of tau peptides to T2R with a series of STD titration experiments ([95]). STD NMR spectra of the ligand with and without T2R were recorded. The concentration of ligand (tau peptide) ranged from 0.04 to 2.8 mM; T2R concentration was maintained at 10 μM. From STD NMR spectra, STD signals were integrated and summed for both STDdiff and STDref over three regions, 8.565 to 7.771, 7.584 to 7.384, and 7.073 to 6.681 ppm. From STDdiff and STDref, STD AFs (STDAF) were calculated according to Equation 1, where [L] is the concentration of peptide (0.04–2.8 mM) and [R] is the concentration of T2R (10 μM). […] STD-AF values (at a fixed saturation time) of a peptide were fitted according to Equation 2, where αSTD represents the maximum STD AF ([72]). For peptide concentration of […] and T2R concentration of 10 μM, we generated STD build-up curves by recording the STD difference signal at increasing saturation times of 0.1 to 4 s. […] (2) STDAF([L])=αSTD∗[L]/Kd+[L] (3) STDAF(t)=STDmax(1−e^(−Ksat∗t)) STD0=STDmax∗Ksat

“NLKHQPGGGKVQIIN {acetyl-K} KLDLSNVQSK [Acetyl-K280 265 to 290, K280 acetylated form of the 265 to 290 peptide]” was tested, and the “STD signal / binding to T2R” value (listed as acetylation at K280) was “further weakened”, the “STD signal / binding to T2R” value (listed as acetylation at residue K280) was “Decreases in binding” and the “apparent Kd / affinity for T2R (in words)” value (from here on “apparent Kd / affinity”) (peptide 0.044 to 2.8 mM, listed as K280 acetylation) was “trend toward reduced binding, though to a lesser extent”.
“NIKHVPGGGSVQIVY {succinyl-K} PVDLSKVTSK [Succinyl-K311 296 to 321, K311 succinylated form of the 296 to 321 peptide]” was tested, and the “STD signal / binding to T2R” value (listed as succinylation at residue K311) was “loss of binding is evident; also recorded: Decreases in binding”, the “apparent Kd / affinity” value (peptide 0.044 to 2.8 mM, listed as Succinylation at K311) was “trend toward lower apparent affinity” and the “apparent Kd / affinity” value (peptide 0.044 to 2.8 mM, listed as Succinylation of K311) was “trend toward reduced binding, though to a lesser extent”. For the same sequence, the “apparent Kd increase vs 296 to 321 peptide” value (STD-AF, peptide 0.044 to 2.8 mM, trend) was “ca. twofold”.
In the case of “NIKHVPGGGSVQIV {phospho-Y} KPVDLSKVTSK [Phos-Y310 296 to 321, Y310 phosphorylated form of the 296 to 321 peptide]”, the “STD signal / binding to T2R” value (listed as phosphorylation at residue Y310) was “weaker STD signal; also recorded: Decreases in binding”, the “apparent Kd / affinity” value (peptide 0.044 to 2.8 mM, listed as Y310 phosphorylated peptide) was “severely reduced peptide binding to T2R” and the “apparent Kd / affinity” value (peptide 0.044 to 2.8 mM, listed as Y310 phosphorylated peptides) was “precluded a reliable fit”. For the same sequence, the “apparent Kd / affinity” value (peptide 0.044 to 2.8 mM, listed as phosphorylation at Y310) was “linear binding curve over the accessible range of peptide concentrations, precluding a robust fit to the data, but indicating a more severe reduction in affinity”.
